Like-named read-outs stand apart in the source and are kept apart here.
How the values were obtained:
cyclin D1/cdk 4 enzyme = biological target: T1, cyclin D1/cdk 4 enzyme (Homo sapiens, UniProt P11802); test: CDK4 ELISA kinase assay (phospho-Rb ser 795 detection); type: biochemical
T1 construct: made in house; host or cells: Sf9 insect cells, recombinant baculovirus
In short: (§1)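 Partially purified Sf9-expressed cyclin D1/CDK4, cyclin E/CDK2 or cyclin B/CDK1 phosphorylated plate-bound GST-Rb C-terminal fragment with 200 μM ATP at 30° C for 1 h.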

cyclin E/CDK2 enzyme = biological target: T2, cyclin E/CDK2 enzyme (Homo sapiens, UniProt P24941); test: CDK2 ELISA kinase assay (phospho-Rb ser 795 detection); type: biochemical
T2 construct: made in house; host or cells: Sf9 insect cells, recombinant baculovirus
In short: as §1

cyclin B/CDK1 enzyme = biological target: T3, cyclin B/CDK1 enzyme (Homo sapiens, UniProt P06493); test: CDK1 ELISA kinase assay (phospho-Rb ser 795 detection); type: biochemical
T3 construct: purchased New England BioLabs; host or cells: Sf9 insect cells, recombinant baculovirus
In short: as §1

BT474 = test: Cytotoxicity assay (SRB), BT474; type: cell-based
In short: (§2)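 BT474 (12000 cells/well) was treated for 6 days, whereas HCT-116 (4000), LoVo (6000) and MCF-7 (6000) were treated for 3 days, all in RPMI 1640 containing 5% FBS. Surviving-cell percentage came from SRB dye binding measured at 540 nm.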

HCT-116 = test: Cytotoxicity assay (SRB), HCT-116; type: cell-based; details: Homo sapiens, HCT-116, 72 h, HCT116 cells, SRB, read-out: In Vitro Cellular Activity IC50 HCT116
In short: as §2

LoVo = test: Cytotoxicity assay (SRB), LoVo; type: cell-based; details: Homo sapiens, LoVo, 72 h, LoVo cells, SRB, read-out: In Vitro Cellular Activity IC50 LOVO
In short: as §2

MCF-7 = test: Cytotoxicity assay (SRB), MCF-7; type: cell-based; details: Homo sapiens, MCF7, 72 h, MCF-7 cells, SRB, read-out: In Vitro Cellular Activity IC50 MCF-7
In short: as §2

[1] = In Vitro Enzyme Assays, 200 μM ATP, read-out: CDK4 IC50
[2] = In Vitro Enzyme Assays, read-out: CDK2 IC50
[3] = In Vitro Enzyme Assays, read-out: CDK1 IC50
[4] = Homo sapiens, BT-474, 144 h, BT474 cells, SRB, 6 days; read-out: In Vitro Cellular Activity IC50 BT474
[5] = Homo sapiens, BT-474, 144 h, BT474 cells, 6 days, SRB; read-out: In Vitro Cellular Activity IC50 BT474

T1 sequence (P11802 whole entry, species assumed): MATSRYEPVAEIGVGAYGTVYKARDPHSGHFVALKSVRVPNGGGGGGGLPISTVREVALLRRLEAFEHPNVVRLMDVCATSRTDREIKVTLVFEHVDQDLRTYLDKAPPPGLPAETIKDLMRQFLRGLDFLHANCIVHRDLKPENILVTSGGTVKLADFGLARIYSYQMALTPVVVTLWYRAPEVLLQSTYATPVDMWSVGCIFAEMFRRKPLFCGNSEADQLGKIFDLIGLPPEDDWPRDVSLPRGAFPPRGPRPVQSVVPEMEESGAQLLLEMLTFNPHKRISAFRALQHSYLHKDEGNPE
T1 sequence (P24385 whole entry partner, species assumed): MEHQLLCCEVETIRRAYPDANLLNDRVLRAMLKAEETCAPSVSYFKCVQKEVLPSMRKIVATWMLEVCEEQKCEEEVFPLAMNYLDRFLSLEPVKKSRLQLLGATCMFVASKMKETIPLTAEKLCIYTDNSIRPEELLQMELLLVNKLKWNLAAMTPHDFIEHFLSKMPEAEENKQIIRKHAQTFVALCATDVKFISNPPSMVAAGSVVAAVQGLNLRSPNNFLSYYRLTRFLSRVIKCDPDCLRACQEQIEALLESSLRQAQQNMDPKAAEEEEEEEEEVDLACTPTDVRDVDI
T3 sequence (P06493 whole entry): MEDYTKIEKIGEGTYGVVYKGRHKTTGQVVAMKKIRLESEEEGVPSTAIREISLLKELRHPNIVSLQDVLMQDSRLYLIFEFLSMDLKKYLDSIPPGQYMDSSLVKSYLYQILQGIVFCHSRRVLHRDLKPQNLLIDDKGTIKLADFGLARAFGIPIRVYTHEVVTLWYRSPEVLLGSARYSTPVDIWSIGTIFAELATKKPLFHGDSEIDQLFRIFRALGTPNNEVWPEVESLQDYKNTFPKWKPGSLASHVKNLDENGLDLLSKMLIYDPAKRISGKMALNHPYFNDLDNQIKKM
T3 sequence (P14635 whole entry partner): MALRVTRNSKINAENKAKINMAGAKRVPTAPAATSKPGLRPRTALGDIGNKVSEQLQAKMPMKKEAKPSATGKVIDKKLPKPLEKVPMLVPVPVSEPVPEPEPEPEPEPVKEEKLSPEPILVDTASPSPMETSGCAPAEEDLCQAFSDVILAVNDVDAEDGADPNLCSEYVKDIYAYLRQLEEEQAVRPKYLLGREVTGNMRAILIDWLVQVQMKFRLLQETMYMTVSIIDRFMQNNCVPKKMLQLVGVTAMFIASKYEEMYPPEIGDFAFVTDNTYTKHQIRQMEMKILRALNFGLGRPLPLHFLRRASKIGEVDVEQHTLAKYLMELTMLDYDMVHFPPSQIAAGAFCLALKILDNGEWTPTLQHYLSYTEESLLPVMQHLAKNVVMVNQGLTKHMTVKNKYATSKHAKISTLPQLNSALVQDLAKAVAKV

Row | Structure (SMILES) | IC50 (cyclin D1/cdk 4 enzyme; [1]) [µM] | IC50 (cyclin E/CDK2 enzyme; [2]) [µM] | IC50 (cyclin B/CDK1 enzyme; [3]) [µM] | IC50 (BT474; [4]) [µM] | IC50 (HCT-116; three days) [µM] | IC50 (LoVo; three days) [µM] | IC50 (MCF-7; three days) [µM] | melting point | IC50 (BT474; [5]) [µM] | IC50 (HCT-116; 3 days) [µM] | IC50 (LoVo; 3 days) [µM] | IC50 (MCF-7; 3 days) [µM] | IC50 (cyclin D1/cdk 4 enzyme; In Vitro Enzyme Assay, cyclin D1/cdk 4, read-out: CDK4 IC50) [µM] | IC50 (cyclin E/CDK2 enzyme; In Vitro Enzyme Assay, cyclin E/CDK2, read-out: CDK2 IC50) [µM] | IC50 (cyclin B/CDK1 enzyme; In Vitro Enzyme Assay, cyclin B/CDK1, read-out: CDK1 IC50) [µM]
1 | CC1CN(C)[C@H](C)CN1c1ccc(N/C=C2\C(=O)NC(=O)c3ccc(Br)cc32)cc1 (stereo in doubt) [Example 238, (4Z)-6-Bromo-4-[({4-[(2S,5R)-2,4,5-trimethylpiperazin-1-yl]phenyl}amino)methylene]-isoquinoline-1,3(2H,4H)-dione] | 4.8 | > 50 | > 50 | 7.4 | 6.7 | 4.3 | 1 | 184 to 185 °C |  |  |  |  |  |  | 
2 | COc1cc2c(cc1-c1ccc(F)cc1)/C(=C/Nc1ccc(CN3CCCCC3)cc1)C(=O)NC2=O [Example 253, 6-(4-Fluoro-phenyl)-7-methoxy-4-[(4-piperidin-1-ylmethyl-phenylamino)-methylene]-4H-isoquinoline-1,3-dione] | 2.9 | > 50 | > 50 | 2.8 | 1.1 | 2.6 | 2 | 227 to 230 °C |  |  |  |  |  |  | 
3 | CN(C)c1ccc(CN/C=C2\C(=O)NC(=O)c3ccc(I)cc32)cc1O [Example 347, (4Z)-4-({[4-(Dimethylamino)-3-hydroxybenzyl]amino}methylene)-6-iodoisoquinoline-1,3(2H,4H)-dione] | 0.005 | 1.5 | 6.7 | 2.4 | 3.1 | 2.7 | 2.2 | 198 to 199 °C |  |  |  |  |  |  | 
4 | C[C@@H]1CN(c2ccc(N/C=C3\C(=O)NC(=O)c4ccc(-c5ccoc5)cc43)cc2)C[C@H](C)N1C [Example 241, (4Z)-6-(3-Furyl)-4-[({4-[(3R,5S)-3,4,5-trimethylpiperazin-1-yl]phenyl}amino)-methylene]isoquinoline-1,3(2H,4H)-dione] | 0.45 | > 50 | > 50 | 1.2 | 1.9 | 3.8 | 1.3 | 204 to 205 °C |  |  |  |  |  |  | 
5 | CN(C)CCCN1CCC(c2ccc(N/C=C3\C(=O)NC(=O)c4ccc(I)cc43)cc2)CC1 [Example 425, (4Z)-4-{[(4-{1-[3-(Dimethylamino)propyl]piperidin-4-yl}phenyl)amino]methylene}-6-iodoisoquinoline-1,3(2H,4H)-dione] | 0.36 | 37.1 | 44.4 |  |  |  |  | 139 to 140 °C | 1.5 | 0.6 | 1.2 | 2.6 |  |  | 
6 | O=C1NCc2ccccc2C1=CNc1ccc(CCN2CCCC2)cc1 [Example 170, 4-{[4-(2-Pyrrolidin-1-yl-ethyl)-phenylamino]-methylene}-1,4-dihydro-2H-isoquinolin-3-one] | 46.5 | > 50 | > 50 | 27 | 6.2 | 21 | 11 | 169 to 173 °C (dec.) |  |  |  |  |  |  | 
7 | COc1ccc(-c2ccc3c(c2)/C(=C/Nc2ccc(CN4CCCC4C)cc2)C(=O)NC3=O)cc1 (stereo not drawn) [Example 358, (4Z)-6-(4-Methoxyphenyl)-4-[({4-[(2-methylpyrrolidin-1-yl)methyl]phenyl}amino)-methylene]-isoquinoline-1,3(2H,4H)-dione] | 0.31 | 43.4 | 35.5 | 2.6 | 1.4 | 3 | 2.5 | 232 to 233 °C |  |  |  |  |  |  | 
8 | CN1CCN(c2ccc(N/C=C3\C(=O)NC(=O)c4ccc(F)cc43)cc2)CC1 [Example 70, (4Z)-6-Fluoro-4-({[4-(4-methylPiperzin-1-yl)phenyl]amino}methylene)isoquinoline-1,3(2H,4H)-dione] | 9.4 | > 50 | 16.9 | 3.23 | 2.55 | 5.18 | 4.06 | 242 to 243 °C |  |  |  |  |  |  | 
9 | CN1CCN(c2ccc(N/C=C3\C(=O)NC(=O)c4ccc(Br)cc43)nn2)CC1 [Example 477, (4Z)-6-Bromo-4-({[6-(4-methylpiperazin-1-yl)pyridazin-3-yl]amino}methylene)isoquinoline-1,3(2H,4H)-dione] |  |  |  |  |  |  |  | 245 to 246 °C | 4.1 | 1.6 | 3.9 | 2.3 | 13.8 | 40.6 | 24.2
10 | CCCNc1ccc(CN/C=C2\C(=O)NC(=O)c3ccc(I)cc32)cc1O [Example 366, (4Z)-4-({[3-Hydroxy-4-(propylamino)benzyl]amino}methylene)-6-iodoisoquinoline-1,3(2H,4H)-dione] | 0.12 | 1.9 | 31.7 | 3.8 | 3.3 | 2.8 | 6.9 | 236 to 237 °C |  |  |  |  |  |  | 
11 | COc1ccc(C#Cc2ccc3c(c2)/C(=C/Nc2ccc(N4CCN(C)CC4)cc2)C(=O)NC3=O)cc1 [Example 172, (4Z)-6-[(4-Methoxyphenyl)ethynyl]-4-({[4-(4-methylpiperazin-1-yl)phenyl]amino}-methylene)isoquinoline-1,3(2H,4H)-dione] | 23.6 | > 50 | 23.6 | 17 | 8.7 | > 50 | > 50 | 155 to 156 °C |  |  |  |  |  |  | 
12 | Cl.O=C1NC(=O)c2ccc(Br)cc2C1=NNc1ccc(CN2CCCCC2)cc1 [Example 144, 6-Bromo-4-[(4-piperidin-1-ylmethyl-phenyl)-hydrazono]-4H-isoquinoline-1,3-dione Hydrochloride] | 1.9 | > 50 | > 50 | 3.2 | 1.5 | 3.2 | 3.2 | 298 to 299 °C (dec.) |  |  |  |  |  |  | 
13 | CN(C)Cc1ccc(N/C=C2\C(=O)NC(=O)c3ccc(Br)cc32)cc1 [Example 73] | 0.83 | 7.7 | 43.5 | 18 | 10 | 13 | 9.3 | 159 to 160 °C |  |  |  |  |  |  | 
14 | CN1CCN(c2ccc(N/C=C3\C(=O)NC(=O)c4ccc(-c5ccc(F)cc5)cc43)cc2F)CC1 [Example 290, (4Z)-4-({[3-Fluoro-4-(4-methylpiperazin-1-yl)phenyl]amino}methylene)-6-(4-fluorophenyl)isoquinoline-1,3(2H,4H)-dione] | 0.32 | > 50 | > 50 | 2.5 | 1.8 | 5.4 | 2.3 | 166 to 167 °C |  |  |  |  |  |  | 
15 | CN1CCC(c2ccc(N/C=C3\C(=O)NC(=O)c4ccc(Br)cc43)cc2)CC1 [Example 344, (4Z)-6-Bromo-4-({[4-(1-methylpiperidin-4-yl)phenyl]amino}methylene)isoquinoline-1,3(2H,4H)-dione] | 0.46 | > 50 | > 50 | 4.2 | 2.6 | 2.8 | 1.6 | 217 to 218 °C |  |  |  |  |  |  | 

Source: patent US7713994B2 (Wyeth LLC, priority 2005, dated 2010)
